Measurements reported in ChEMBL document CHEMBL4831477, “Structure-Enabled Discovery of Novel Macrocyclic Inhibitors Targeting Glutaminase 1 Allosteric Binding Site” (J Med Chem, 2021).
Active and inactive are the calls of the source. No cut-off for these calls is given here.

Legend:
[1] = Apparent volume of distribution in Sprague-Dawley rat at 200 mg/kg, po measured upto 72 hrs by LC-MS/MS analysis; type: ADME, organism-based; settings: in vivo
[2] = Clearance in Sprague-Dawley rat at 200 mg/kg, po measured upto 72 hrs by LC-MS/MS analysis; type: ADME, organism-based; settings: in vivo, 200 mg/kg, 72 h
[3] = target: T1, Glutaminase kidney isoform, mitochondrial (Mus musculus) (UniProt D3Z7P3); assay: In vivo inhibition of GLS1 in BALB/c mouse xenografted with human HCT-116 cells assessed as reduction in fumarate level at 200 mg/kg, po; type: functional, organism-based
T1 sequence (whole entry): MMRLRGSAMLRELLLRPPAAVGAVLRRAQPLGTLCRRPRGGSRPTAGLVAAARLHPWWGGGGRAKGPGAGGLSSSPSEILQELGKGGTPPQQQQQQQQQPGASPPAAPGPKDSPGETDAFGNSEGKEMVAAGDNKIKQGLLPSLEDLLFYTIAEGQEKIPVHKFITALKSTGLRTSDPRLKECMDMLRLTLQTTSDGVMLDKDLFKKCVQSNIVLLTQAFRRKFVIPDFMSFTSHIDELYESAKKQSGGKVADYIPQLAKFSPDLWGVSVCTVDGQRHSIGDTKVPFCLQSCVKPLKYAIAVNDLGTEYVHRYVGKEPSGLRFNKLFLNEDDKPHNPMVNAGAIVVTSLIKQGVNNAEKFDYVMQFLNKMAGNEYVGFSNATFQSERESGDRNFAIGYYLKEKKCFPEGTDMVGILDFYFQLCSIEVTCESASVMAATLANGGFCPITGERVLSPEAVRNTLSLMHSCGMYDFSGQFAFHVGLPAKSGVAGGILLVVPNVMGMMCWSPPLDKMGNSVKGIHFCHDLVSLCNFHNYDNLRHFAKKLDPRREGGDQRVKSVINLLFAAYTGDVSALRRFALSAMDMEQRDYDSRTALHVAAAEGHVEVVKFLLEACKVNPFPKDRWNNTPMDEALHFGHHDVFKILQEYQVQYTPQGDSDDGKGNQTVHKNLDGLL

[4] = Half life in Sprague-Dawley rat at 5 mg/kg, iv measured upto 72 hrs by LC-MS/MS analysis; type: ADME, organism-based; settings: in vivo
[5] = Metabolic stability in human plasma assessed as compound remaining after 2 hrs by LC-MS/MS analysis; type: ADME, cell-free; settings: read-out: Stability
[6] = Toxicity in BALB/c nude mouse xenografted with human HCT-116 cells assessed as tolerability at 200 mg/kg, po administered twice daily measured after 28 days; type: organism-based; settings: in vivo, 672 h, time 28 day
[7] = Cmax in Sprague-Dawley rat at 200 mg/kg, po measured upto 72 hrs by LC-MS/MS analysis; type: ADME, organism-based; set-up: route oral, dose 200 mg/kg, time <=72; settings: in vivo
[8] = AUC(0 to infinity) in Sprague-Dawley rat at 200 mg/kg, po measured upto 72 hrs by LC-MS/MS analysis; type: ADME, organism-based; set-up: route oral, dose 200 mg/kg, time <=72; settings: in vivo, 72 h
[9] = target: T1, Glutaminase kidney isoform, mitochondrial (Mus musculus); assay: In vivo inhibition of GLS1 in BALB/c mouse xenografted with human HCT-116 cells assessed as reduction in aspartate level at 200 mg/kg, po; type: functional, organism-based
[10] = AUC(0 to t) in Sprague-Dawley rat at 200 mg/kg, po measured upto 72 hrs by LC-MS/MS analysis; type: ADME, organism-based; set-up: route oral, dose 200 mg/kg, time <=72; settings: in vivo
[11] = fCmax in BALB/c nude mouse plasma xenografted with human HCT-116 cells at 200 mg/kg, po administered twice daily for 28 days; type: ADME, organism-based; settings: in vivo, 672 h, time 28 day
[12] = Oral bioavailability in Sprague-Dawley rat at 200 mg/kg measured upto 72 hrs by LC-MS/MS analysis; type: ADME, organism-based; settings: in vivo
[13] = Metabolic stability in mouse plasma assessed as compound remaining after 2 hrs by LC-MS/MS analysis; type: ADME, cell-free; settings: read-out: Stability
[14] = Acute toxicity in BALB/c nude mouse assessed as heart damage at 200 mg/kg, po administered twice daily for 4 weeks by H and E staining based optical microscopic analysis; type: organism-based; settings: in vivo, 672 h
[15] = tested on: HCT-116; assay: Antineoplastic activity against human HCT-116 cells xenografted in po dosed BALB/c nude mouse administered twice daily measured after 28 days; type: functional, organism-based; settings: dose 200.0 mg/kg, time 28.0 day
[16] = tested on: MDA-MB-436; assay: Antiproliferative activity against human MDA-MB-436 cells assessed as reduction in cell viability incubated for 72 hrs by MTT assay; type: functional, cell-based; settings: MDA-MB-436, 72 h
[17] = target: T1, Glutaminase kidney isoform, mitochondrial (Mus musculus); assay: In vivo inhibition of GLS1 in BALB/c mouse xenografted with human HCT-116 cells assessed as reduction in malate level at 200 mg/kg, po; type: functional, organism-based
[18] = tested on: HCT-116; assay: Antitumor activity against human HCT-116 cells xenografted in BALB/c nude mouse assessed as tumor growth inhibition at 200 mg/kg, po administered twice daily measured after 28 days; type: functional; settings: Mus musculus, HCT-116, po, 672 h, time 28 day, read-out: TGI
[19] = Toxicity in BALB/c nude mouse xenografted with human HCT-116 cells assessed as body weight loss at 200 mg/kg, po administered twice daily for 28 days and measured every 3 days; type: organism-based; settings: in vivo, 672 h, time 28 day
[20] = tested on: HCT-116; assay: Induction of ROS generation in human HCT-116 cells at 500 nM preincubated for 1 hr with NAC followed by compound addition by measured after 3 hrs DCFH-DA dye based flow cytometric analysis; type: functional, cell-based
[21] = target: T1, Glutaminase kidney isoform, mitochondrial (Mus musculus); assay: In vivo inhibition of GLS1 in BALB/c mouse xenografted with human HCT-116 cells assessed as reduction in alpha-ketoglutarate level at 200 mg/kg, po; type: functional, organism-based
[22] = Acute toxicity in BALB/c nude mouse assessed as spleen damage at 200 mg/kg, po administered twice daily for 4 weeks by H and E staining based optical microscopic analysis; type: organism-based; settings: in vivo, 672 h
[23] = Metabolic stability in human liver microsomes assessed as clearance at 10 uM preincubated for 5 mins followed by NADPH addition by LC-MS/MS analysis; type: ADME, Microsome; settings: read-out: CLH
[24] = Metabolic stability in mouse liver microsomes assessed as half life at 10 uM preincubated for 5 mins followed by NADPH addition by LC-MS/MS analysis; type: ADME, Microsome
[25] = Acute toxicity in BALB/c nude mouse assessed as lung damage at 200 mg/kg, po administered twice daily for 4 weeks by H and E staining based optical microscopic analysis; type: organism-based; settings: in vivo, 672 h
[26] = tested on: HCT-116; assay: Antiproliferative activity against human HCT116 cells assessed as reduction in cell viability incubated for 72 hrs by MTT assay; type: functional, cell-based; settings: HCT-116, 72 h
[27] = tested on: HCT-116; assay: Antitumor activity against human HCT-116 cells xenografted in BALB/c nude mouse assessed as karyorrhexis at 200 mg/kg, po administered twice daily measured after 28 days by H and E staining based optical microscopic method; type: functional, organism-based; settings: time 28.0 day
[28] = AUC(0 to t) in Sprague-Dawley rat at 5 mg/kg, iv measured upto 72 hrs by LC-MS/MS analysis; type: ADME, organism-based; set-up: route intravenous, dose 5 mg/kg, time <=72; settings: in vivo
[29] = target: T1, Glutaminase kidney isoform, mitochondrial (Mus musculus); assay: In vivo inhibition of GLS1 in BALB/c mouse xenografted with human HCT-116 cells assessed as reduction in glutathione level at 200 mg/kg, po; type: functional, organism-based
[30] = tested on: HCT-116; assay: Induction of ROS generation in human HCT-116 cells incubated for 6 hrs by DCFH-DA dye based flow cytometric analysis; type: functional, cell-based; settings: dose 50-500 nM

O=C1Cc2cccc(c2)OCC/C=C/CCOc2cccc(c2)CC(=O)Nc2nnc(s2)CCCCc2ccc(nn2)N1
Vz [1]: 58.6 L/kg
CL [2]: 61.7 mL/min/kg
inhibition [3]: Active
half-life [4]: 6.3 h
remaining at 2 h [5]: 92%
Activity [6]: Non-Toxic
Cmax [7]: 1030 ng/mL
AUC [8]: 6064 ng·h/mL
inhibition [9]: Active
AUC(0-t) at 72 h [10]: 5920 ng·h/mL
fCmax [11]: 0.21 µM
bioavailability [12]: 9%
remaining at 2 h [13]: 89%
Activity [14]: Non-Toxic
Activity [15]: Dose-Dependent Effect
IC50 [16]: 340 nM
inhibition [17]: Active
inhibition in vivo at 200 mg/kg [18]: 39%
Activity [19]: Non-Toxic
Activity [20]: inactive
inhibition [21]: Active
Activity [22]: Non-Toxic
microsomal CLint at 10 µM [23]: 3.2 µL/min/mg
half-life at 10 µM [24]: 1.7 h
Activity [25]: Non-Toxic
IC50 [26]: 80 nM
Activity [27]: Active
AUC(0-t) at 72 h [28]: 1630 ng·h/mL
inhibition [29]: Active
Activity [30]: Dose-Dependent Effect
